The target in series [1] is hSIRP-alpha (Homo sapiens, UniProt P78324). Kind of series: Soluble peptide inhibition of hSIRP-alpha binding to polypeptide beads. From the text: (§1) Synthesis of the three designs and Scrambled-peptides with or without biotin attached via either an aminohexanoic acid linker (C6) or a PEG linker, enabled functional testing of binding to soluble hSIRP-alpha as well as inhibition of nanobead phagocytosis. […] The 10-aa FG-hairpin was synthesized without attachment of biotin for use as a soluble inhibitor of hSIRP-alpha binding to polypeptide beads. […] While conformational constraints the minimal FG-hairpin combined with the likely lack of a stable structure underscores the utility of at least some backbone flexibility.
Chain of hSIRP-alpha (P78324 31-373 limits assumed): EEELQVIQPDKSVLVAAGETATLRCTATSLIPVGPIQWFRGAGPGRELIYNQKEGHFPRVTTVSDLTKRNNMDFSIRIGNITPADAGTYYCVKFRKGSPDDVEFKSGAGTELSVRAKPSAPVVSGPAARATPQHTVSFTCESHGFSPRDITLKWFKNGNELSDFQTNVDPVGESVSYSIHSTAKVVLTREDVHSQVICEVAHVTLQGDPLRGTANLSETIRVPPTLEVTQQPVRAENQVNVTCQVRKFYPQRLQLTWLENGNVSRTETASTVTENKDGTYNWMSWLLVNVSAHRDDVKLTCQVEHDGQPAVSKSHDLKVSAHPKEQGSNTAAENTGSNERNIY

Series [2] deals with THP-1 cells. Kind of series: Phagocytosis assay of peptide-coated opsonized nanobeads in THP-1 cell line. It is filed as cell-based. Particulars: opsonized beads. As for the experimental part: FIG. 3A illustrates a two color experiment in which nanoparticles (or cells) are mixed and injected into the same mouse after labeling with or without the peptide with distinct fluorescent red dye (PKH26) or far-red (DiD). 50 μl of blood was periodically sampled from the eyes, and flow cytometry analysis of the decay in nanoparticle (or cell) numbers was used to calculate the time-dependent ‘persistence ratio’ in each mouse. Colors were labeled as 1 and 2. FIG. 3B is a graph illustrating an experiment where 160 nm polystyrene beads coated with streptavidin were bound to biotinylated versions of synthetic FG-peptide, or else negative controls of either scrambled peptide or PEG. Beads were opsonized with anti-streptavidin and then injected. n=6 mice. FIG. 3C is a graph illustrating the inverse correlation between the in vivo ratio of beads with or without peptide at 35 min and the inhibition of phagocytosis in vitro at 45 min for 160 nm beads. FIG. 3D is a graph illustrating macrophage SIRPa1 tyrosine phosphorylation upon contact with FG-peptide bound to opsonized beads and phagocytosed by THP-1 cells. From cell lysates, SIRP-alpha was immunoprecipitated and immunoblotted for quantitation of phosphotyrosine per total SIRP-alpha (n=3). Avg.±SEM for all results.
FIG. 4 illustrates binding and phagocytosis inhibition of peptides in relation to human-SIRP-alpha. […]

The target in series [3] is soluble hSIRP-alpha (Homo sapiens, UniProt P78324). The experiment in a line: Binding of polypeptide-coated beads to soluble hSIRP-alpha by flow cytometry.
Chain of soluble hSIRP-alpha (P78324 31-373 limits assumed): as above
Source text: FIG. 4 illustrates binding and phagocytosis inhibition of peptides in relation to human-SIRP-alpha. Affinity of polypeptides coated beads binding to soluble hSIRP-alpha based on flow cytometry. Saturation binding fit gave the indicated dissociation constant, Kd.
as §1

A short description of series [4]: Two-color persistence of opsonized nanobeads in circulation of NSG mice. It is filed as in vivo. Particulars: 160 nm opsonized streptavidin polystyrene beads.
Protocol: FIG. 3A illustrates a two color experiment in which nanoparticles (or cells) are mixed and injected into the same mouse after labeling with or without the peptide with distinct fluorescent red dye (PKH26) or far-red (DiD). 50 μl of blood was periodically sampled from the eyes, and flow cytometry analysis of the decay in nanoparticle (or cell) numbers was used to calculate the time-dependent ‘persistence ratio’ in each mouse. Colors were labeled as 1 and 2. FIG. 3B is a graph illustrating an experiment where 160 nm polystyrene beads coated with streptavidin were bound to biotinylated versions of synthetic FG-peptide, or else negative controls of either scrambled peptide or PEG. Beads were opsonized with anti-streptavidin and then injected. n=6 mice. […] Avg.±SEM for all results.
The subject of series [5] is spleen macrophages. Particulars: NSG mice, near-infrared particles.
Source text: To assess whether the particles had been taken up by spleen macrophages in NSG mice, tissue sections were immunostained for macrophages and imaged by fluorescence microscopy.

Positions of bridges follow the written chain, without caps; N, C: chain ends. Residues, ends and D or L forms follow the SMILES beside them. No end group written: not given here.

Consider `CC(C)C[C@H](NC(=O)[C@H](CCC(=O)O)NC(=O)[C@@H](NC(=O)[C@@H](NC(=O)[C@@H](N)CCC(=O)O)C(C)C)[C@@H](C)O)C(=O)N[C@H](C(=O)N[C@@H](CCCNC(=N)N)C(=O)N[C@@H](CCC(=O)O)C(=O)NCC(=O)N[C@@H](CCC(=O)O)C(=O)O)[C@@H](C)O` [FG-hairpin, EVTELTREGE] (H-EVTELTREGE-OH; N-terminus and C-terminus assumed), for which the Ki in series [1] lay in the range of 100 to 200 nM.
Consider “CEVTELTREGEC (disulfide 1-12 (inferred)) [FG-SS-peptide, 12-aa peptide with Cys substitution intended to disulfide-stabilize the β-hairpin]”, for which the “inhibition of nanobead phagocytosis” value in series [2] is on record as “no statistically significant inhibition of phagocytosis”. The “affinity / binding to hSIRP-alpha (in words)” value in series [3] (peptide-coated beads, soluble hSIRP-alpha) is “no significant affinity”.
In the case of GNYTCEVTELTREGETIIELK [FG-peptide], the circulation of nanoparticles result in series [4] is on record as “prolong the circulation of nanoparticles”. Moreover, in series [5], the “particle uptake, whole organ imaging” value is “reducing but not eliminating uptake”. For the same compound, the Kd in series [3] (saturation binding fit, biotinylated peptide on streptavidin beads, C6 or PEG linker, read-out: affinity for SIRP-alpha (Kd)) is 110 to 160 nM.

Usually Ki stands for a dissociation constant, usually derived from enzyme kinetics or from competition with a known ligand. High values mean weaker binding, low ones tighter binding. As usually defined, the Kd is the concentration at which binding is half-saturated.

The record behind these values is patent US9566347B2, “Peptides and methods using same” (The Trustees of the University of Pennsylvania, priority 2011, dated 2017).
